# What was measured:
# Nitric oxide synthase 1 = Nitric oxide synthase 1 (Rattus norvegicus, UniProt P29476); assay: Inhibition of rat nNOS
# [1] = molecular target: T1, Nitric oxide synthase, inducible (Mus musculus, UniProt P29477); assay: Inhibition of murine macrophage iNOS
# T1 sequence (P29477 whole entry): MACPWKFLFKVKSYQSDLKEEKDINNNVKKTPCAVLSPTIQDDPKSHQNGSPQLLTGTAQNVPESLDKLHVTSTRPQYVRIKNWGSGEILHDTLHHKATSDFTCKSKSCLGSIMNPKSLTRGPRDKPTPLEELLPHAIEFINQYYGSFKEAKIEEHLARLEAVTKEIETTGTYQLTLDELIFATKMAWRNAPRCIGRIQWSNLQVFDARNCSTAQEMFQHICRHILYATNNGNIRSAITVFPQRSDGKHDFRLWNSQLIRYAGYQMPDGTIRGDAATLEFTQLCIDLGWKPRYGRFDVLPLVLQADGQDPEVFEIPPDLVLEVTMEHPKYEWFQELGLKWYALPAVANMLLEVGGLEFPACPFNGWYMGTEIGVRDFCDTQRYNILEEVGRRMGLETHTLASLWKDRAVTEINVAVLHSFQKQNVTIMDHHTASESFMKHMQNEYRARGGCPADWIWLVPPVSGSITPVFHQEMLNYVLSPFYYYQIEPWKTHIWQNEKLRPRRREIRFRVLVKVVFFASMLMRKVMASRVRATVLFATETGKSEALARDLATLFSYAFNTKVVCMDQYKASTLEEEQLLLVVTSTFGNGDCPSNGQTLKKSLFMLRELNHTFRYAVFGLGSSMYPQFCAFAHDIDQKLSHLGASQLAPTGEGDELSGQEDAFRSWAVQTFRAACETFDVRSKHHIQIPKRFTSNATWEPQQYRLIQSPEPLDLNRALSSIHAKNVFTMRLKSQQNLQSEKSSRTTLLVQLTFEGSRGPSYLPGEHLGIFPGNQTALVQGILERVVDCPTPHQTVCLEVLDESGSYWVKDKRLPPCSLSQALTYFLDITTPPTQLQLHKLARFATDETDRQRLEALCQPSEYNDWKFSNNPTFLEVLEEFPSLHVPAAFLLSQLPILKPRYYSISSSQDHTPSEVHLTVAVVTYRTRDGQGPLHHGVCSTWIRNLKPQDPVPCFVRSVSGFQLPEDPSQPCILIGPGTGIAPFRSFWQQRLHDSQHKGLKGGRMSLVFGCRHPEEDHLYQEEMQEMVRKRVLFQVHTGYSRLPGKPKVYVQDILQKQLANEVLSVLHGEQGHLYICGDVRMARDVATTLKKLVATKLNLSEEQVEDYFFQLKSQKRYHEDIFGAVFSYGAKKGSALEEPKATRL
# Nitric oxide synthase 3 = molecular target: T2, Nitric oxide synthase 3 (Bos taurus, UniProt P29473); assay: Inhibition of bovine eNOS
# T2 sequence (P29473 whole entry): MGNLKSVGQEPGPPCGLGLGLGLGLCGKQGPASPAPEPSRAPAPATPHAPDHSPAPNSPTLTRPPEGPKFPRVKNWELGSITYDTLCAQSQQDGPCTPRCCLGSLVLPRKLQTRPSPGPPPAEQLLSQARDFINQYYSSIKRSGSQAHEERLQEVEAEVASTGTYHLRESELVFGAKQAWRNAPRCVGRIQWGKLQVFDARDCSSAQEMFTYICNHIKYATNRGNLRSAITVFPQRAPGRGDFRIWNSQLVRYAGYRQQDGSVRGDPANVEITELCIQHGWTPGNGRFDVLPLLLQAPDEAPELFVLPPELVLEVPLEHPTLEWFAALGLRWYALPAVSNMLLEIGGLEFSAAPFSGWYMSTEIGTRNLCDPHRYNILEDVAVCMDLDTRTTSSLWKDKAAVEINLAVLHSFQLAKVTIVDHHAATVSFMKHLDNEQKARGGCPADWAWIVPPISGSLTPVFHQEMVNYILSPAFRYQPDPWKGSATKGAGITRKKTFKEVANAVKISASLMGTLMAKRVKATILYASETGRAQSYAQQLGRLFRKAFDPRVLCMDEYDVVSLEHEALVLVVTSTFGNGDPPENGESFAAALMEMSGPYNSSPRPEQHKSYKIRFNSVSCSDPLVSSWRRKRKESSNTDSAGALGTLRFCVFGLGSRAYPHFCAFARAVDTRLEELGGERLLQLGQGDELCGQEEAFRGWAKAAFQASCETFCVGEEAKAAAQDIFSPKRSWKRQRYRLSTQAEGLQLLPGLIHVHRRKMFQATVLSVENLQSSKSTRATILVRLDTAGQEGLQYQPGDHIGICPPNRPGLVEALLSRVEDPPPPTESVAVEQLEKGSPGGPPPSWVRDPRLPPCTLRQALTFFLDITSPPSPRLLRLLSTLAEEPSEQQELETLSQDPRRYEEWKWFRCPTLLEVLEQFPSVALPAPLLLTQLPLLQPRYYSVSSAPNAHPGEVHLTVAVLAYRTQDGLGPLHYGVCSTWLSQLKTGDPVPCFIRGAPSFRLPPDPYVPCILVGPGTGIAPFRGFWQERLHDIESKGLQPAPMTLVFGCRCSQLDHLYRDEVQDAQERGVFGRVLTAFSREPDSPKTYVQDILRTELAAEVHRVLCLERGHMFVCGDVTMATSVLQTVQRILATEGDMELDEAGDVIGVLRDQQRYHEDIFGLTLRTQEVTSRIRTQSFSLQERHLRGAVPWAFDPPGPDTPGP
# [2] = Selectivity for rat nNOS over murine iNOS
# [3] = Selectivity for rat nNOS over bovine eNOS
# Chain of Nitric oxide synthase 1 (P29476 whole entry): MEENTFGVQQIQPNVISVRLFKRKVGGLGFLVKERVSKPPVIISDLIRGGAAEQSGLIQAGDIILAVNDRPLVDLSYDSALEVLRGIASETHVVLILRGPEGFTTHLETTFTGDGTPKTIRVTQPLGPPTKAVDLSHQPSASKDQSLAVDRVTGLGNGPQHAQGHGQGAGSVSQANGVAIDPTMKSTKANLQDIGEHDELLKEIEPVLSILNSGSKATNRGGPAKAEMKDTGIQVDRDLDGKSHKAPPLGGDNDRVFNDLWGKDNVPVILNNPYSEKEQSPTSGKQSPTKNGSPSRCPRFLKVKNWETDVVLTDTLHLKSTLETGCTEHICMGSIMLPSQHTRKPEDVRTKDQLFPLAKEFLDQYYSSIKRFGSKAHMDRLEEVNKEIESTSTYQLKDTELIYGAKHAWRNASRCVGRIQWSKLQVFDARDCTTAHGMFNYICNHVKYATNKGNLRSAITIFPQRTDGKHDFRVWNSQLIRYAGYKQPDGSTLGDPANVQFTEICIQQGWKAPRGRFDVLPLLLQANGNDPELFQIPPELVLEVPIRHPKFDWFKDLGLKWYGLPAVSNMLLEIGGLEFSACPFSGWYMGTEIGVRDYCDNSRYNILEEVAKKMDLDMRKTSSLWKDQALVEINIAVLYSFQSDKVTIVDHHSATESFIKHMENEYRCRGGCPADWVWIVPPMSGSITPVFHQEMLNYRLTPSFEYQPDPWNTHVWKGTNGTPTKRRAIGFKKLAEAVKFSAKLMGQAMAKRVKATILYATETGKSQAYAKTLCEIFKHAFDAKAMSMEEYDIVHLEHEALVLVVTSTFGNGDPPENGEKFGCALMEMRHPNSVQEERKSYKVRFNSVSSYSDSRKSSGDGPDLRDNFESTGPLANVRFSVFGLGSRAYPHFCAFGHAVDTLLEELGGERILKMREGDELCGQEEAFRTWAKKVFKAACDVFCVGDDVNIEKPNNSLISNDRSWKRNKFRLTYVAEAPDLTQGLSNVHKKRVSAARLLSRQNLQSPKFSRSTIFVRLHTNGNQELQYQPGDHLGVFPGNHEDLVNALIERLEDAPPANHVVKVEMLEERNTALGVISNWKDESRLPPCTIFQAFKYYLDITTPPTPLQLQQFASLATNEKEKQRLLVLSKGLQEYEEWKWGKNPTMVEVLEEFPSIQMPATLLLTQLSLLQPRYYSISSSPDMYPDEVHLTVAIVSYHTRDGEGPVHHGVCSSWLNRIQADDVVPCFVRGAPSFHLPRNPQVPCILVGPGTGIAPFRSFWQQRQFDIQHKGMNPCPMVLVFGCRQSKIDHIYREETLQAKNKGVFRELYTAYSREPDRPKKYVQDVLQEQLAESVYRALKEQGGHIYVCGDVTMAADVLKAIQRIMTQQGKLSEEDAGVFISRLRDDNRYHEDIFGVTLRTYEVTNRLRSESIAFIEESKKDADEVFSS
SMILES,IC50 (Nitric oxide synthase 1),Ki (Nitric oxide synthase 1),IC50 [1],Ki [1],IC50 (Nitric oxide synthase 3),Ki (Nitric oxide synthase 3),Ratio Ki [2],Ratio Ki [3]
CN1C[C@H](NC(=O)[C@@H](N)CCC/N=C(\N)N[N+](=O)[O-])C[C@H]1C(N)=O,73.5 µM,8.46 µM,83.5 µM,37.9 µM,1690 µM,246 µM,4.5,29
NC(=O)[C@H]1NCC[C@@H]1NC(=O)[C@@H](N)CCC/N=C(\N)N[N+](=O)[O-],–,–,12.7 µM,5.76 µM,1380 µM,200 µM,–,–
NC(=O)[C@@H]1C[C@@H](NC(=O)[C@@H](N)CCC/N=C(\N)N[N+](=O)[O-])CN1Cc1ccccc1,2.85 µM,0.328 µM,87.5 µM,39.7 µM,1100 µM,159 µM,121,485

# — ChEMBL document CHEMBL1137380, “Conformationally restricted dipeptide amides as potent and selective neuronal nitric oxide synthase inhibitors” (J Med Chem, 2006)
